Reference: article PMC5902538, “Metabolic benefits of 1-(3-(4-(o-tolyl)piperazin-1-yl)propyl)pyrrolidin-2-one: a non-selective α-adrenoceptor antagonist” (Journal of Endocrinological Investigation, 2017)

Experiments:
Format in all cases: cell-based
α2B-adrenoceptor = molecular target: T1, α2B-adrenoceptor (Homo sapiens, UniProt P18089); test: intrinsic activity (antagonist) assay in ready-to-use cells stably expressing the receptor (Perkin Elmer)
T1 construct: gene ADRA2B
T1 sequence (P18089 1-450): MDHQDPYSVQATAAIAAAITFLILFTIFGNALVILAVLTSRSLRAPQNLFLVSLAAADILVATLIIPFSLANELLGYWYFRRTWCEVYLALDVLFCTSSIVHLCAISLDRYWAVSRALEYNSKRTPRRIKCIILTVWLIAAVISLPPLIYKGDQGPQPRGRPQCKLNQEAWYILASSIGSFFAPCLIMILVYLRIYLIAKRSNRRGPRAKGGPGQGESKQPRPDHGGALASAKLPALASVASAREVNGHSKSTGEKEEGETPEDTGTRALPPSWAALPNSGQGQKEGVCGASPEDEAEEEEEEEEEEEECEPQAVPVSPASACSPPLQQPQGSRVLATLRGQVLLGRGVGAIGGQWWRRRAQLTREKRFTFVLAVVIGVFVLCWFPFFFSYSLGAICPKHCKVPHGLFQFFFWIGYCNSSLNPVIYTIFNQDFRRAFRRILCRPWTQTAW

α1A-adrenoceptor = molecular target: T2, α1A-adrenoceptor (Homo sapiens, UniProt P35348); test: intrinsic activity (antagonist) assay in ready-to-use cells stably expressing the receptor (Invitrogen)
T2 construct: gene ADRA1A
T2 sequence (P35348 1-466): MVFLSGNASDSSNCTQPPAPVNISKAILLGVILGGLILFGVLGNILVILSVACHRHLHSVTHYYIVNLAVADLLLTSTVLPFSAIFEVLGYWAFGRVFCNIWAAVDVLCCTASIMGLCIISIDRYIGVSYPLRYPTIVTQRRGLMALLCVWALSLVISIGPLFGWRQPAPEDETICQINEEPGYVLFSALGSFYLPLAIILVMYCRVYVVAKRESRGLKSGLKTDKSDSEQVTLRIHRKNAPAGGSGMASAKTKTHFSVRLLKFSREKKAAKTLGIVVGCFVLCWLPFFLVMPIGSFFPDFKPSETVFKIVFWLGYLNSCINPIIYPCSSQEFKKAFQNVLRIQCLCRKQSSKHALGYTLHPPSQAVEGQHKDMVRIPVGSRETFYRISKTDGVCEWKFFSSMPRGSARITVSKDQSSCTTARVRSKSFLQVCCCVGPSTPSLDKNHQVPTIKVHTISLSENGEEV

α2A-adrenoceptor = molecular target: T3, α2A-adrenoceptor (Homo sapiens, UniProt P08913); test: as above
T3 construct: gene ADRA2A
T3 sequence (P08913 1-465): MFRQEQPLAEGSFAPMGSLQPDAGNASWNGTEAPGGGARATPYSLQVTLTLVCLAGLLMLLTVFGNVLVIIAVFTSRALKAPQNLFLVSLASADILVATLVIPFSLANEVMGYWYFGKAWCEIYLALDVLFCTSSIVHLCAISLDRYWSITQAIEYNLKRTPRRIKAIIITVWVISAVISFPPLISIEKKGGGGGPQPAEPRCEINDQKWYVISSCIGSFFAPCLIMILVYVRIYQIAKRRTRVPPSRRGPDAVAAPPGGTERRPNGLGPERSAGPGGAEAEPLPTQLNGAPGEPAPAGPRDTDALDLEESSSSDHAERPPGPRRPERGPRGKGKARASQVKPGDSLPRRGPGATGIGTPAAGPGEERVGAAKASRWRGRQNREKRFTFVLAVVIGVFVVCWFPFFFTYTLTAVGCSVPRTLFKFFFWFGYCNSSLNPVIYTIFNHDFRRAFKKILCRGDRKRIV

α1B-adrenoceptor = molecular target: T4, α1B-adrenoceptor (Homo sapiens, UniProt P35368); test: intrinsic activity (antagonist) assay in ready-to-use cells stably expressing the receptor (Perkin Elmer)
T4 construct: gene ADRA1B
T4 sequence (P35368 1-520): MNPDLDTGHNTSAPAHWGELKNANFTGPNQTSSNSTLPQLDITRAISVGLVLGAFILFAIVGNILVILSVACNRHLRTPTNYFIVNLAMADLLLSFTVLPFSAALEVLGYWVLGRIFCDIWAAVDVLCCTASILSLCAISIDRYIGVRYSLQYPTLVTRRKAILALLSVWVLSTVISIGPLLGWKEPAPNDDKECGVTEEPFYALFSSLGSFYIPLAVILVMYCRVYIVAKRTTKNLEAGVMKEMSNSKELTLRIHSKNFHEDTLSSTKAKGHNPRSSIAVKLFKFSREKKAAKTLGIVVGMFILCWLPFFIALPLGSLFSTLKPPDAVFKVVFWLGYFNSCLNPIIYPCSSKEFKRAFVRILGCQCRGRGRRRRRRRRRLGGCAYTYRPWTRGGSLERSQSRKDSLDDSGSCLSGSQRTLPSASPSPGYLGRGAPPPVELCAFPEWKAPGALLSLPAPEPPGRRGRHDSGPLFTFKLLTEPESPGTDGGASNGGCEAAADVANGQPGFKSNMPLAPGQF

Compound: Cc1ccccc1N1CCN(CCCN2CCCC2=O)CC1 [EP-47, 1-(3-(4-(o-tolyl)piperazin-1-yl)propyl)pyrrolidin-2-one]
- IC50 (α2B-adrenoceptor): 2.07 ± 0.69 µM
- IC50 (α1A-adrenoceptor): 42.5 ± 11.2 µM
- IC50 (α2A-adrenoceptor): 0.213 ± 0.032 µM
- IC50 (α1B-adrenoceptor): 0.0326 ± 0.00069 µM
